Measurements: PMC8869333, “Alpha-Glucosidase and Alpha-Amylase Inhibitory Activities, Molecular Docking, and Antioxidant Capacities of Plectranthus ecklonii Constituents” (Antioxidants, 2022)

Tests used:
alpha-glucosidase = target: T1, alpha-glucosidase (Saccharomyces cerevisiae, UniProt P53341); assay: Alpha-glucosidase inhibitory activity (pNPG substrate, absorbance 405 nm); format: biochemical
T1 construct: purchased Sigma-Aldrich
Method: The organic solvents used in this study were supplied by Merck, Cape Town, South Africa. The NMR spectra were carried out on an Avance 400 MHz spectrometer (Bruker, Rheinstetten, Germany) using deuterated chloroform. Preparative HPLC was utilized for the purification of compounds using HPLC-grade methanol and distilled water.
The reaction was stopped by adding 50 μL of sodium carbonate Na2CO3 (0.1 M). […] Each experiment was repeated three times.

[1] = Ferric-ion reducing antioxidant power (FRAP) assay; conditions: ascorbic acid equivalents; stock solution 1 mg/mL
Method: The FRAP assay was carried out in accordance with the method described previously. In a 96-well plate, 10 μL of the stock solution (1 mg/mL w/v) of the isolated compounds (1–3) was mixed with 300 μL of FRAP reagent. The FRAP reagent was prepared by mixing (10:1:1, v/v/v) of acetate buffer (300 mM, pH 3.6), tripyridyl triazine (TPTZ) (10 mM in 40 mM HCl), and FeCl3.6H2O (20 mM). Incubation commenced at room temperature for 30 min, and the plate was read at a wavelength of 593 nm in a Multiskan spectrum plate reader (Thermo Fisher Scientific). L-Ascorbic (Sigma-Aldrich, Cape Town, South Africa) was used as a standard, with concentrations varying between 0 and 1000 μM. Further dilutions were carried out with the samples that were highly concentrated, and such dilution factors were recorded and used for calculations of the affected samples. The results are expressed as μM ascorbic acid equivalents per milligram dry weight (μM AAE/g) of the test samples.

[2] = Trolox equivalent absorbance capacity (TEAC) assay; conditions: Trolox equivalents; stock solution 1 mg/mL
Method: The TEAC assay was carried out in accordance with the method described previously. The stock solutions, which contained 7 mM of ABTS and 140 mM of K2S2O8, were prepared and kept at −2 °C. The working solution was then prepared by adding 88 μL of K2S2O8 solution to 5 mL of ABTS solution. The two solutions were mixed and allowed to react for 24 h at room temperature in the dark. Trolox was used as a standard, with concentrations ranging between 0 and 500 μM. After 24 h, the ABTS mix solution was diluted with ethanol to read a start-up absorbance (control) of approximately 2.0 (±0.1). The stock solution (1 mg/mL) of a methanol extract and purified compounds (25 μL) were allowed to react with 300 μL of ABTS in the dark at room temperature for 30 min. The absorbance was read at 734 nm at 25 °C in the plate reader. The results are expressed as μM Trolox equivalents per milligram dry weight (μM/TE/g) of the test samples.

[3] = Oxygen radical absorbance capacity (ORAC) assay; conditions: Trolox equivalents; stock solution 1 mg/mL
Method: ORAC assay was conducted according to the previous method with slight modifications. The method measured the antioxidant scavenging capacity of thermal decomposition generated by peroxyl radical of 2,2-azobis (2-amino-propane) dihydrochloride (AAPH) as peroxyradical (ORACROO^.) generator. The loss of fluorescence of fluorescein (probe) was an indication of the extent of its oxidation through reaction with the peroxyl radical. The protective effect of an antioxidant was measured by assessing the fluorescence area under the curve (AUC) plot relative to that of blank in which no antioxidant was present. The analyzer was programmed to record the fluorescence of fluorescein every 2 min after AAPH was added. The fluorescein solution and sample were added in the wells of an illuminated 96-well plate, and 12 μL of each sample in a stock solution of 1 mg/mL was combined with 138 μL of a fluorescein working solution, followed by the addition of 50 μL of 150 mg of AAPH prepared in situ in 6 mL phosphate buffer. Absorbance was measured with a Fluoroskan spectrum plate reader with the excitation wavelength set as 485 nm and the emission wavelength at 530 nm. A calibration curve was used, using a Trolox stock solution of concentration in the range of 83–417 μM (R^2 = 0.9514). The ORAC values were calculated using a regression equation (Y = a + bX + Cx^2) between Trolox concentration (Y in μM) and the net area under the fluorescence decay curve (X). ORAC values are expressed as μMTE/mg of a test sample. Samples without perfect curve were further diluted, and the dilution factors were used for the calculation of such samples.

[4] = cited from earlier work

T1 sequence (P53341 whole entry): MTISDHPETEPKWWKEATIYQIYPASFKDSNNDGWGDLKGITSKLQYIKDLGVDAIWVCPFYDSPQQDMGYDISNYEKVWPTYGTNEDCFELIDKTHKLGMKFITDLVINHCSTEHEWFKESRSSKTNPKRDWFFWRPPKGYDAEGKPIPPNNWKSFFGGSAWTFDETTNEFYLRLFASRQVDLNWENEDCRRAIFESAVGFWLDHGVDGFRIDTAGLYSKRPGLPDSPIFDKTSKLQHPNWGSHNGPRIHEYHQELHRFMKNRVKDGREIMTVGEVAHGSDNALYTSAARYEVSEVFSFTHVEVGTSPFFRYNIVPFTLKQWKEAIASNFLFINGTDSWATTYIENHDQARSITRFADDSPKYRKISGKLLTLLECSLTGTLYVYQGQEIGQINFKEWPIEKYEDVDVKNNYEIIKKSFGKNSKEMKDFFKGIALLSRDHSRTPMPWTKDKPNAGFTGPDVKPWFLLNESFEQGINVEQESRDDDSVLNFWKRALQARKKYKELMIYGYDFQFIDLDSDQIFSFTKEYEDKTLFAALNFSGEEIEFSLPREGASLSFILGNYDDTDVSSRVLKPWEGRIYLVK

In the case of COc1cc(C(=O)OC2CC(C)(C)C3=CC=C4C=C(C(C)C)C(=O)C(O)=C4C3(C)C2)ccc1O (centres unmarked) [Compound 3, parvifloron G], the IC50 (alpha-glucosidase) is reported as 88.9 µM, the FRAP [1] is reported as 1455.4 ± 2.0 µM AAE/g and the TEAC [2] is reported as 3526.1 ± 0.6 µM TE/g.
For O=C(O[C@@H]1Cc2c(O)cc(O)cc2O[C@@H]1c1cc(O)c(O)c(O)c1)c1cc(O)c(O)c(O)c1 [EGCG, epigallocatechin gallate, reference compound], the FRAP [1] was 7524.1 ± 4.9 µM AAE/g, the ORAC [3] was 3976.82 ± 3.8 µM TE/g and the TEAC [2] was 4146.4 ± 19.8 µM TE/g.
In the case of parvifloron D [Compound 1], the IC50 ([4]; read-out: DPPH radical scavenging IC50) is given as 1300 ± 100 µM, the FRAP [1] is given as 1043.9 ± 2.6 µM AAE/g and the ORAC [3] is given as 3942.9 ± 7.1 µM TE/g. For the same molecule, the TEAC [2] was 470.3 ± 2.2 µM TE/g.
For parvifloron F [Compound 2], the EC50 ([4]; read-out: DPPH radical scavenging EC50) is given as 131 µM, the FRAP [1] is given as 1155.5 ± 2.3 µM AAE/g and the ORAC [3] is given as 1726.1 ± 2.6 µM TE/g. It also gave a TEAC [2] of 1069.3 ± 2.4 µM TE/g.
